Experimental data as given in ChEMBL document CHEMBL5113413, “New peptidomimetic rhodesain inhibitors with improved selectivity towards human cathepsins” (Eur J Med Chem, 2022).
Activity calls are given as the source filed them. The rule behind the calls is not given here.

Assays:
Rhodesain = Rhodesain (Trypanosoma brucei rhodesiense, UniProt Q95PM0); test: Irreversible inhibition of Trypanosoma brucei rhodesiense rhodesain assessed as inhibition constant using Cbz-Phe-Arg-AMC as fluorogenic substrate by fluorometric assay
Rhodesain, sequence (Q95PM0 whole entry): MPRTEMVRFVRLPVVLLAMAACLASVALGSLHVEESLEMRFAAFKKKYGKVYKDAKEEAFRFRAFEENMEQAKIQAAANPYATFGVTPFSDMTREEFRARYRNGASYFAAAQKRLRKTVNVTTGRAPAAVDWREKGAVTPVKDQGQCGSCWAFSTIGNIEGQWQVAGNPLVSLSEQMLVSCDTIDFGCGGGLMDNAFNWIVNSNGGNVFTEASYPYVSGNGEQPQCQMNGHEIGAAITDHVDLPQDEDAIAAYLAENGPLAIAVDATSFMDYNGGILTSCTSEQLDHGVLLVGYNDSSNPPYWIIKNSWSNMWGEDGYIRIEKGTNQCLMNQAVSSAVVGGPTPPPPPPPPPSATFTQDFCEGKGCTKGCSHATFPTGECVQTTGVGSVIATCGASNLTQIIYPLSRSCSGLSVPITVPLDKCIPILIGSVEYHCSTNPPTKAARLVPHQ

Procathepsin L [1] = molecular target: T1, Procathepsin L (Homo sapiens, UniProt P07711); test: Irreversible inhibition of human Cathepsin L assessed as inhibition constant using Cbz-Phe-Arg-AMC as fluorogenic substrate by fluorometric assay
Target sequence in this assay (P07711 whole entry): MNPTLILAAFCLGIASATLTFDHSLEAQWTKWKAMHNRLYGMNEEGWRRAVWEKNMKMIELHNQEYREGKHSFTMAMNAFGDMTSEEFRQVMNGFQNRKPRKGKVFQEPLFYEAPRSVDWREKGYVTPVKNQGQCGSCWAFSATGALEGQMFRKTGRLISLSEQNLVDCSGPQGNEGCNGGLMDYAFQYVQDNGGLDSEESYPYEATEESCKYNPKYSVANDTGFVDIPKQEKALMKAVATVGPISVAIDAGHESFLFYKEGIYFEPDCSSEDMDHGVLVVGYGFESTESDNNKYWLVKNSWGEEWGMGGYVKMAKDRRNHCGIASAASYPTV

Cathepsin B [2] = molecular target: T2, Cathepsin B (Homo sapiens, UniProt P07858); test: Inhibition of human Cathepsin B at 20 uM using Cbz-Phe-Arg-AMC as fluorogenic substrate by fluorometric assay
[3] = Cytotoxicity against mouse J774.1 cells assessed as reduction in cell viability incubated for 48 hrs by MTT assay; type: toxicity, cell-based
[4] = tested on: Trypanosoma brucei brucei; test: Antitrypanosomal activity against Trypanosoma brucei brucei BS449 assessed as luminescence incubated for 48 hrs by ATPlite assay; type: functional, organism-based; settings: BS449, 48 h
Procathepsin L [5] = molecular target: T1, Procathepsin L; test: Inhibition of human Cathepsin L at 20 uM using Cbz-Phe-Arg-AMC as fluorogenic substrate by fluorometric assay
Target sequence in this assay (P07711 114-333 limits assumed): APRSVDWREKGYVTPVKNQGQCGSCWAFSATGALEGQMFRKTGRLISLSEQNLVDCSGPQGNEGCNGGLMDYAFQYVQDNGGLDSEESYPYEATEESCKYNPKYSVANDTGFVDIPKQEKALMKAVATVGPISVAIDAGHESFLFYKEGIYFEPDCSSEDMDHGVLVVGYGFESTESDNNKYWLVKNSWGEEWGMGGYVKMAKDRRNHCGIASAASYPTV

[6] = molecular target: Rhodesain (Trypanosoma brucei rhodesiense) (UniProt Q95PM0); test: Irreversible inhibition of Trypanosoma brucei rhodesiense rhodesain assessed as Kinact using Cbz-Phe-Arg-AMC as fluorogenic substrate by fluorometric assay
Rhodesain (Trypanosoma brucei rhodesiense), sequence (Q95PM0 1-450): as the sequence (Q95PM0 whole entry) above

[7] = molecular target: Rhodesain (Trypanosoma brucei rhodesiense) (UniProt Q95PM0); test: Irreversible inhibition of Trypanosoma brucei rhodesiense rhodesain assessed as second order rate constant using Cbz-Phe-Arg-AMC as fluorogenic substrate by fluorometric assay
[8] = molecular target: Genome polyprotein (dengue virus type 2) (UniProt P29990); test: Inhibition of Dengue virus NS2B-NS3 protease at 11 uM using Boc-Gly-Arg-Arg-AMC as fluorogenic substrate by fluorometric assay
Cathepsin B [9] = molecular target: T2, Cathepsin B; test: Irreversible inhibition of human Cathepsin B assessed as inhibition constant using Cbz-Phe-Arg-AMC as fluorogenic substrate by fluorometric assay
[10] = molecular target: T3, 20S proteasome (Homo sapiens) (UniProt P49721+P20618+P28074+P28062+P28065+P28072+P25786+P25787+P25788+P25789+P28066+P60900+O14818+Q8TAA3+P40306+A5LHX3+P49720+P28070+Q99436); test: Inhibition of human 20S proteasome caspase-like activity at 11 uM using Cbz-Leu-Leu-Glu-AMC as fluorogenic substrate by fluorometric assay; type: protein-complex assay
Procathepsin L [11] = molecular target: T1, Procathepsin L; test: Irreversible inhibition of human Cathepsin L assessed as second order rate constant using Cbz-Phe-Arg-AMC as fluorogenic substrate by fluorometric assay
Target sequence in this assay (P07711 114-333 limits assumed): as the sequence (P07711 114-333 limits assumed) above

Procathepsin L [12] = molecular target: T1, Procathepsin L; test: Irreversible inhibition of human Cathepsin L assessed as Kinact using Cbz-Phe-Arg-AMC as fluorogenic substrate by fluorometric assay
Target sequence in this assay (P07711 114-333 limits assumed): as above

Cathepsin B [13] = molecular target: T2, Cathepsin B; test: Irreversible inhibition of human Cathepsin B assessed as second order rate constant using Cbz-Phe-Arg-AMC as fluorogenic substrate by fluorometric assay
Cathepsin B [14] = molecular target: T2, Cathepsin B; test: Irreversible inhibition of human Cathepsin B assessed as Kinact using Cbz-Phe-Arg-AMC as fluorogenic substrate by fluorometric assay
[15] = molecular target: Rhodesain (Trypanosoma brucei rhodesiense) (UniProt Q95PM0); test: Reversible inhibition of Trypanosoma brucei rhodesiense rhodesain assessed as recovery of enzyme activity preincubated for 30 mins followed by substrate addition using Cbz-Phe-Arg-AMC as fluorogenic substrate by fluorometric 100-fold dilution assay
[16] = molecular target: Rhodesain (Trypanosoma brucei rhodesiense) (UniProt Q95PM0); test: Irreversible inhibition of Trypanosoma brucei rhodesiense rhodesain assessed as no recovery of enzyme activity preincubated for 30 mins followed by substrate addition using Cbz-Phe-Arg-AMC as fluorogenic substrate by fluorometric 100-fold dilution assay
[17] = molecular target: T3, 20S proteasome (Homo sapiens); test: Inhibition of human 20S proteasome chymotrypsin-like activity at 11 uM using Succ-Leu-Leu-Val-Tyr-AMC as fluorogenic substrate by fluorometric assay; type: protein-complex assay

## O=C(NCc1ccccc1C(=O)N[C@H](/C=C(\F)S(=O)(=O)c1ccccc1)CCc1ccccc1)c1ccncc1
Rhodesain
  Ki: 430 nM
Procathepsin L [1]
  Ki: 14100 nM
Cathepsin B [2]
  inhibition: < 10%

## CC(=O)N(Cc1ccccc1C(=O)N[C@H](/C=C/S(=O)(=O)c1ccccc1)CCc1ccccc1)C(C)=O
Rhodesain
  Ki: 940 nM
[3]
  CC50 at 48 h: 36 µM
[4]
  EC50: 5.7 µM

## O=C(NCc1ccccc1C(=O)N[C@H](/C=C/S(=O)(=O)c1ccccc1)CCc1ccccc1)c1cccc(O)c1
Rhodesain
  Ki: 651 nM
[3]
  CC50 at 48 h: 36 µM
[4]
  EC50: 3.3 µM

## O=C(NCc1ccccc1C(=O)N[C@H](/C=C(\F)S(=O)(=O)Oc1ccccc1)CCc1ccccc1)c1cc(F)cc(F)c1
Rhodesain
  Ki: 638 nM
Cathepsin B [2]
  inhibition: < 10%
Procathepsin L [5]
  inhibition: 14%

## O=C(NCc1ccccc1C(=O)N[C@H](/C=C/S(=O)(=O)c1ccccc1)CCc1ccccc1)c1ccc2c(c1)OCCO2
Rhodesain
  Ki: 504 nM
[6]
  Kinact: 0.0005 s⁻¹
Cathepsin B [2]
  inhibition: < 10%
Procathepsin L [5]
  inhibition: 41%
[7]
  Second-order inactivation rate constant (kinact/Ki): 0.01 10^5/M/s

## O=C(O)c1ccc(C(=O)NCc2ccccc2C(=O)N[C@H](/C=C/S(=O)(=O)c2ccccc2)CCc2ccccc2)cc1
Rhodesain
  Ki: 4030 nM
[6]
  Kinact: 0.0031 s⁻¹
[7]
  Second-order inactivation rate constant (kinact/Ki): 0.0077 10^5/M/s

## CNC(=O)Cc1ccccc1C(=O)N[C@H](/C=C/S(=O)(=O)c1ccccc1)CCc1ccccc1
Rhodesain
  Ki: 470 nM
[3]
  CC50 at 48 h: > 100 µM
[4]
  EC50: 13 µM

## O=C(NCc1ccccc1C(=O)N[C@H](/C=C/S(=O)(=O)Oc1ccccc1)CCc1ccccc1)c1ccncc1
Rhodesain
  Ki: 9 nM
[8]
  inhibition: 26%
Procathepsin L [1]
  Ki: 1150 nM
Cathepsin B [9]
  Ki: 1010 nM
[10]
  inhibition: 41%
[4]
  EC50: 4.2 µM

## O=C(NCc1ccccc1C(=O)N[C@H](/C=C(\F)S(=O)(=O)c1ccccc1)CCc1ccccc1)c1ccccc1
Rhodesain
  Ki: 568 nM
Procathepsin L [1]
  Ki: 8800 nM
[3]
  CC50 at 48 h: 43 µM
Cathepsin B [2]
  inhibition: < 10%
[10]
  inhibition: 25%
[4]
  EC50: 3.3 µM

## O=C(NCc1ccccc1C(=O)N[C@H](/C=C(\F)S(=O)(=O)Cc1ccccc1)CCc1ccccc1)c1cc(F)cc(F)c1
Rhodesain
  Ki: 608 nM

## O=C(NCc1ccccc1C(=O)N[C@H](/C=C/S(=O)(=O)c1ccccc1)CCc1ccccc1)c1ccncc1
Procathepsin L [11]
  Second-order inactivation rate constant: 1.16 10^3/M/s
Rhodesain
  Ki: 107 nM
Procathepsin L [1]
  Ki: 2250 nM
[6]
  Kinact: 0.0046 s⁻¹
Cathepsin B [2]
  inhibition: 44%
Procathepsin L [12]
  Kinact: 0.0026 s⁻¹
[7]
  Second-order inactivation rate constant (kinact/Ki): 0.43 10^5/M/s

## O=C(NCc1ccccc1C(=O)N[C@H](/C=C/S(=O)(=O)c1ccccc1)CCc1ccccc1)c1cc(F)cc(F)c1
Procathepsin L [11]
  Second-order inactivation rate constant: 2.38 10^3/M/s
Rhodesain
  Ki: 109 nM
[8]
  inhibition: 11%
Cathepsin B [13]
  Kdiss: 7.24 10^2/M/s
Procathepsin L [1]
  Ki: 1890 nM
[6]
  Kinact: 0.0173 s⁻¹
Cathepsin B [9]
  Ki: 3040 nM
Cathepsin B [14]
  Kinact: 0.0022 s⁻¹
Procathepsin L [12]
  Kinact: 0.0045 s⁻¹
[7]
  Second-order inactivation rate constant (kinact/Ki): 1.59 10^5/M/s
[10]
  inhibition: 24%

## O=C(NCc1ccccc1C(=O)N[C@H](/C=C/S(=O)(=O)Cc1ccccc1)CCc1ccccc1)c1ccc2c(c1)OCCO2
Rhodesain
  Ki: 59 nM
[6]
  Kinact: 0.0038 s⁻¹
Cathepsin B [2]
  inhibition: < 10%
Procathepsin L [5]
  inhibition: 39%
[7]
  Second-order inactivation rate constant (kinact/Ki): 0.64 10^5/M/s

## O=C(Cc1ccccc1C(=O)N[C@H](/C=C/S(=O)(=O)c1ccccc1)CCc1ccccc1)Nc1ccc(C(=O)O)cc1
Rhodesain
  Ki: 290 nM
[4]
  EC50: 28 µM

## O=C(NCc1ccccc1C(=O)N[C@H](/C=C(\F)S(=O)(=O)Cc1ccccc1)CCc1ccccc1)c1ccc2c(c1)OCCO2
Rhodesain
  Ki: 491 nM
[15]
  inhibition: Active
[16]
  inhibition: Active
Cathepsin B [2]
  inhibition: < 10%
Procathepsin L [5]
  inhibition: 15%

## O=C(NCc1ccccc1C(=O)N[C@H](/C=C(\F)S(=O)(=O)c1ccccc1)CCc1ccccc1)c1cc(F)cc(F)c1
Rhodesain
  Ki: 601 nM

## O=C(NCc1ccccc1C(=O)N[C@H](/C=C/S(=O)(=O)Cc1ccccc1)CCc1ccccc1)c1ccncc1
Rhodesain
  Ki: 436 nM
[6]
  Kinact: 0.006 s⁻¹
[7]
  Second-order inactivation rate constant (kinact/Ki): 0.14 10^5/M/s

## CN1CCN(C(=O)NCc2ccccc2C(=O)N[C@H](/C=C/S(=O)(=O)Cc2ccccc2)CCc2ccccc2)CC1
Rhodesain
  Ki: 318 nM
[6]
  Kinact: 0.005 s⁻¹
[7]
  Second-order inactivation rate constant (kinact/Ki): 0.16 10^5/M/s

## O=C(O)c1cccc(C(=O)NCc2ccccc2C(=O)N[C@H](/C=C/S(=O)(=O)c2ccccc2)CCc2ccccc2)c1
Rhodesain
  Ki: 7430 nM
[3]
  CC50 at 48 h: > 100 µM
[4]
  EC50: 15 µM

## O=C(Cc1ccccc1C(=O)N[C@H](/C=C/S(=O)(=O)c1ccccc1)CCc1ccccc1)Nc1cccc(C(=O)O)c1
Rhodesain
  Ki: 17600 nM
[4]
  EC50: > 40 µM

## O=C(NCc1ccccc1C(=O)N[C@H](/C=C(\F)S(=O)(=O)Cc1ccccc1)CCc1ccccc1)c1ccncc1
Rhodesain
  Ki: 840 nM

## O=C(NCc1ccccc1C(=O)N[C@H](/C=C/S(=O)(=O)Oc1ccccc1)CCc1ccccc1)c1cc(F)cc(F)c1
Procathepsin L [11]
  Second-order inactivation rate constant: 3.92 10^3/M/s
Rhodesain
  Ki: 15 nM
[8]
  inhibition: 35%
Cathepsin B [13]
  Kdiss: 9.34 10^3/M/s
Procathepsin L [1]
  Ki: 560 nM
[6]
  Kinact: 0.0117 s⁻¹
Cathepsin B [9]
  Ki: 760 nM
Cathepsin B [14]
  Kinact: 0.0071 s⁻¹
Procathepsin L [12]
  Kinact: 0.0022 s⁻¹
[7]
  Second-order inactivation rate constant (kinact/Ki): 7.8 10^5/M/s
[17]
  inhibition: 14%
[10]
  inhibition: 33%

## O=C(NCc1ccccc1C(=O)N[C@H](/C=C/S(=O)(=O)Cc1ccccc1)CCc1ccccc1)c1cc(F)cc(F)c1
Rhodesain
  Ki: 356 nM
[6]
  Kinact: 0.0125 s⁻¹
Cathepsin B [2]
  inhibition: < 10%
Procathepsin L [5]
  inhibition: 31%
[7]
  Second-order inactivation rate constant (kinact/Ki): 0.35 10^5/M/s

## O=C(NCc1ccccc1C(=O)N[C@H](/C=C/S(=O)(=O)Cc1ccccc1)CCc1ccccc1)c1ccccc1
Rhodesain
  Ki: 389 nM
[6]
  Kinact: 0.0095 s⁻¹
[7]
  Second-order inactivation rate constant (kinact/Ki): 0.24 10^5/M/s

## CN1CCN(C(=O)N[C@@H](Cc2ccccc2)C(=O)N[C@H](/C=C/S(=O)(=O)c2ccccc2)CCc2ccccc2)CC1 [K-777]
[3]
  CC50 at 48 h: 41 µM
[16]
  inhibition: Active

## O=C(NCc1ccccc1C(=O)N[C@H](/C=C/S(=O)(=O)Oc1ccccc1)CCc1ccccc1)c1ccc2c(c1)OCCO2
Procathepsin L [11]
  Second-order inactivation rate constant: 3.34 10^4/M/s
Rhodesain
  Ki: 10 nM
[8]
  inhibition: 31%
Cathepsin B [13]
  Kdiss: 1.64 10^4/M/s
Procathepsin L [1]
  Ki: 310 nM
[16]
  inhibition: Active
[6]
  Kinact: 0.0079 s⁻¹
Cathepsin B [9]
  Ki: 800 nM
Cathepsin B [14]
  Kinact: 0.013 s⁻¹
Procathepsin L [12]
  Kinact: 0.0104 s⁻¹
[7]
  Second-order inactivation rate constant (kinact/Ki): 7.9 10^5/M/s
[17]
  inhibition: 12%
[10]
  inhibition: 43%

## CC(=O)NCc1ccccc1C(=O)N[C@H](/C=C/S(=O)(=O)c1ccccc1)CCc1ccccc1
Rhodesain
  Ki: 4680 nM
[3]
  CC50 at 48 h: 48 µM
[4]
  EC50: 13.5 µM

## O=C(NCc1ccccc1C(=O)N[C@H](/C=C(\F)S(=O)(=O)Oc1ccccc1)CCc1ccccc1)c1ccncc1
Rhodesain
  Ki: 916 nM
[3]
  CC50 at 48 h: > 100 µM
[4]
  EC50: 1.8 µM
